These results are taken from patent US10556907B2 (AbbVie Inc., priority 2015, dated 2020).

Assay in all cases: Method 1: intracellular Ca2+ release (FLIPR, Calcium 5) in recombinant CHO-K1 cells
Type in all cases: cell-based

Test [1] has as its target T1, human S1PR3 receptor (Homo sapiens, UniProt Q99500).
T1 construct: host or cells: CHO-K1
The conditions noted are these: (1): determined with method 1; read-out: S1P3 EC50. The procedure:
(§1) Agonistic activity was measured using two different methods, described below.
(§2) Method 1. Intracellular Ca^2+ Release
(§3) Agonist potency and intrinsic activity was assessed by measurement of intracellular Ca^2+ release. Recombinant CHO-K1 cells (Euroscreen, Brussels, Belgium) expressing human S1PR5, S1PR1, S1PR3 or S1PR4 receptors, aequorin, and GTP binding protein Gq/i5 were cultured using a medium containing nutrient mixture F-12 Ham (Sigma-Aldrich) with 10% FBS, and 100 μg/mL gentamicin and equilibrated at 5% CO2.
(§4) 15.000 cells in 20 μL medium were seeded into Biocoat poly-D-Lysine coated 384 well plates (Becton Dickinson #35-6663) and grown to 95% confluency after 24 h.
(§5) Culture medium was replaced by an assay buffer consisting of HBBS with Ca^2+ and Mg^2+ (Invitrogen #14025-050), 20 mmol/L Hepes (Sigma-Aldrich #H-3375), 2.5 mmol/L probenecid (Sigma-Aldrich #P-8761, and 0.1% BSA (Sigma-Aldrich #A-7030) pH 7.4. The Calcium 5 no-wash FLIPR assay kit (Molecular Devices #5000625) was performed as described in the kit instructions. Cells were incubated with Calcium 5 dye for 1 h at 37° C., 5% CO2 in the dark. After 45 min adaptation to RT assessment of agonist stimulation of intracellular Ca^2+ release was performed by addition of test compounds at concentrations obtained by serial dilution. Phospho-fingolimod was used as positive control. Antagonists were pre-incubated for 10 min with cells before addition of the agonist (phospho-fingolimod at EC80). Measurements were performed using a fluorometric imaging plate reader FLIPR® tetra (Molecular Devices). Agonist at the human S1P receptors were characterized by deducing EC50 (potency) values from a nonlinear fit to the measured fluorescence raw data after normalization to the reference agonist (phospho-fingolimod) curve.

Test [2] deals with T2, human S1PR1 receptor (Homo sapiens, UniProt P21453).
T2 construct: host or cells: CHO-K1
The conditions noted are these: (1): determined with method 1; read-out: S1P1 EC50. The procedure: as §1, §2, §3, §4, §5

Test [3] concerns the target T3, human S1PR5 receptor (Homo sapiens, UniProt Q9H228).
T3 construct: host or cells: CHO-K1
Particulars: agonist potency, determined with method 1 (symbols A-D); read-out: S1P5 EC50 range. As to the method: as §1, §2, §3, §4, §5

Some results are limits rather than exact numbers.

T2 sequence (P21453 whole entry): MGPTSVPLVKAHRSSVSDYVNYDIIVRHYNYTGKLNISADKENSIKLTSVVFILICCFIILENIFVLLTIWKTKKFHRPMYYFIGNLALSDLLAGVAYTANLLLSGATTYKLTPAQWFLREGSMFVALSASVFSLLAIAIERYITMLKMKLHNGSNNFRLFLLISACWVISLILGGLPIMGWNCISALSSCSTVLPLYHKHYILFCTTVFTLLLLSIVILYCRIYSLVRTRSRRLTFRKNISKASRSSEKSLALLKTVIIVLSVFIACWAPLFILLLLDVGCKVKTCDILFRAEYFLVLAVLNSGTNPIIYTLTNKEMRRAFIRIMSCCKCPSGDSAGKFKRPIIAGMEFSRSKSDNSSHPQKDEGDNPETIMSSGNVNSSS
T1 sequence (Q99500 whole entry): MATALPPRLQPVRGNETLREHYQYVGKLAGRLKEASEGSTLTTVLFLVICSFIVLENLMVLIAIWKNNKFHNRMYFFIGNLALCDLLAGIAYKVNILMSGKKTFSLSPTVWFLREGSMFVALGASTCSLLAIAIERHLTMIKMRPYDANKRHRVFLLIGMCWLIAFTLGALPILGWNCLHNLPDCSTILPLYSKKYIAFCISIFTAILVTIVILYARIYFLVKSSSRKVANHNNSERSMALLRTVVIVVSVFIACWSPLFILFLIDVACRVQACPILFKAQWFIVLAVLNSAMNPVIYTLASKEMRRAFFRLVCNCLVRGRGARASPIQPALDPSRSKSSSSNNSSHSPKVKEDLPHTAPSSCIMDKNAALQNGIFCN
T3 sequence (Q9H228 whole entry): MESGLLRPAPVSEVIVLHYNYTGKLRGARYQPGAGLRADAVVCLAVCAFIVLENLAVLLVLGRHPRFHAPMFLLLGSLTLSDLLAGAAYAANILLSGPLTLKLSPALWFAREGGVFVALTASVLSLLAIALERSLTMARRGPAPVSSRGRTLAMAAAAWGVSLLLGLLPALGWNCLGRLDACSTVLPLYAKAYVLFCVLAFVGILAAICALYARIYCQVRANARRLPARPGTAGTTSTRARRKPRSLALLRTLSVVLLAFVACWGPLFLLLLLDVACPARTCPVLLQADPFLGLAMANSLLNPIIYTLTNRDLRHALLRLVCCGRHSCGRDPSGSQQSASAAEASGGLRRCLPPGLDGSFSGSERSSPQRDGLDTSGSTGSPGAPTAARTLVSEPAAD

`CC(CN1CCc2nc(-c3ccc(OCc4cccc(Cl)c4)cc3)ncc2C1)C(=O)O` (stereo not drawn) [Compound 10, 3-(2-(4-((3-chlorobenzyl)oxy)phenyl)-7,8-dihydropyrido[4,3-d]pyrimidin-6(5H)-yl)-2-methylpropanoic acid]: the half-maximal effective concentration (EC50) is more than 1000 nM in test [1], more than 1000 nM in test [2] and less than 10 nM in test [3].

With `CC(C)Oc1ccc(-c2ncc3c(n2)CCN(CCCC(=O)O)C3)cc1Cl` [Compound 47, 4-(2-(3-chloro-4-isopropoxyphenyl)-7,8-dihydropyrido[4,3-d]pyrimidin-6(5H)-yl)butanoic acid], the concentration giving a half-maximal response (EC50) in test [1] is more than 1000 nM; in test [2], more than 1000 nM; in test [3], 1000 to 10000 nM.

With `O=C(O)CCN1CCc2nc(-c3ccc(OCc4ccccc4)cc3)ncc2C1` [Compound 67, 3-(2-(4-(benzyloxy)phenyl)-7,8-dihydropyrido[4,3-d]pyrimidin-6(5H)-yl)propanoic acid], the half-maximal effective concentration (EC50) in test [1] was more than 1000 nM; in test [2] it was more than 1000 nM; in test [3] it was 10 to 100 nM.

Take `CC(CC(=O)O)CN1CCc2nc(-c3ccc(OCc4ccccc4)cc3)ncc2C1` (stereo not drawn) [Compound 21, 4-(2-(4-(benzyloxy)phenyl)-7,8-dihydropyrido[4,3-d]pyrimidin-6(5H)-yl)-3-methylbutanoic acid]: the values for the half-maximal effective concentration (EC50) in test [1], in test [2] and in test [3] were more than 1000 nM, more than 1000 nM and 10 to 100 nM, respectively.

With `O=C(O)CCN1CCc2nc(-c3ccc(OCc4ccc(C(F)(F)F)cc4)cc3)ncc2C1` [Compound 81, 3-(2-(4-((4-(trifluoromethyl)benzyl)oxy)phenyl)-7,8-dihydropyrido[4,3-d]pyrimidin-6(5H)-yl)propanoic acid], the EC50 was more than 1000 nM in test [1], more than 1000 nM in test [2] and less than 10 nM in test [3].

With `O=C(O)CCN1CCc2nc(-c3ccc(OCc4cccc(Cl)c4)cc3)ncc2C1` [Compound 72, 3-(2-(4-((3-chlorobenzyl)oxy)phenyl)-7,8-dihydropyrido[4,3-d]pyrimidin-6(5H)-yl)propanoic acid], the EC50 is more than 1000 nM in test [1], more than 1000 nM in test [2] and less than 10 nM in test [3].

For the molecule `O=C(O)CCN1Cc2cnc(-c3ccc(OCc4ccccc4)cc3)nc2C1` [Compound 100, 3-(2-(4-(benzyloxy)phenyl)-5H-pyrrolo[3,4-d]pyrimidin-6(7H)-yl)propanoic acid], the half-maximal effective concentration (EC50) in test [1] was more than 1000 nM; in test [2], more than 1000 nM; in test [3], 1000 to 10000 nM.

In the case of `Cc1ccc(C(F)(F)F)c(COc2ccc(-c3ncc4c(n3)CCN(CCC(=O)O)C4)cc2)c1` [Compound 91, 3-(2-(4-((5-methyl-2-(trifluoromethyl)benzyl)oxy)phenyl)-7,8-dihydropyrido[4,3-d]pyrimidin-6(5H)-yl)propanoic acid], the figures for the half-maximal effective concentration (EC50) in test [1], in test [2] and in test [3] were more than 1000 nM, more than 1000 nM and 100 to 1000 nM, respectively.

Regarding `CC(C)Oc1ccc(-c2ncc3c(n2)CCN(CCC(=O)O)C3)cc1` [Compound 75, 3-(2-(4-isopropoxyphenyl)-7,8-dihydropyrido[4,3-d]pyrimidin-6(5H)-yl)propanoic acid], the EC50 is more than 1000 nM in test [1], more than 1000 nM in test [2] and 1000 to 10000 nM in test [3].

With `O=C(O)CCN1CCc2nc(-c3ccc(OCc4ccc(F)c(F)c4)cc3)c(F)cc2C1` [Compound 198, 3-(2-(4-((3,4-difluorobenzyl)oxy)phenyl)-3-fluoro-7,8-dihydro-1,6-naphthyridin-6(5H)-yl)propanoic acid], the EC50 is more than 1000 nM in test [1], less than 1000 nM in test [2] and less than 10 nM in test [3].

As to `O=C(O)CCN1CCc2nc(-c3ccc(OCc4cccc(C(F)(F)F)c4)cc3)ncc2C1` [Compound 86, 3-(2-(4-((3-(trifluoromethyl)benzyl)oxy)phenyl)-7,8-dihydropyrido[4,3-d]pyrimidin-6(5H)-yl)propanoic acid], the values for the EC50 in test [1], in test [2] and in test [3] were more than 1000 nM, more than 1000 nM and less than 10 nM, respectively.

As for `O=C(O)CCCN1CCc2nc(C#Cc3ccccc3)ncc2C1` [Compound 48, 4-(2-(phenylethynyl)-7,8-dihydropyrido[4,3-d]pyrimidin-6(5H)-yl)butanoic acid], the EC50 was more than 1000 nM in test [1], more than 1000 nM in test [2] and 1000 to 10000 nM in test [3].

On to `Cc1cc(OC(F)(F)F)ccc1COc1ccc(-c2ncc3c(n2)CCN(CCC(=O)O)C3)cc1` [Compound 93, 3-(2-(4-((2-methyl-4-(trifluoromethoxy)benzyl)oxy)phenyl)-7,8-dihydropyrido[4,3-d]pyrimidin-6(5H)-yl)propanoic acid], for which the concentration for a half-maximal effect (EC50) in test [1] was more than 1000 nM; in test [2], less than 1000 nM; in test [3] it was less than 10 nM.

Consider `Cc1cc(-c2ccc3c(n2)CCN(CC(=O)O)C3)ccc1OCc1ccc(C(F)(F)F)cc1` [Compound 112, 2-(2-(3-methyl-4-((4-(trifluoromethyl)benzyl)oxy)phenyl)-7,8-dihydro-1,6-naphthyridin-6(5H)-yl)acetic acid], for which the EC50 in test [1] was more than 1000 nM; in test [2], more than 1000 nM; in test [3] it was 100 to 1000 nM.

Regarding `CC(CN1CCc2nc(-c3ccc(OCc4ccccc4)c(Cl)c3)ccc2C1)C(=O)O` (stereo not drawn) [Compound 106, 3-(2-(4-(benzyloxy)-3-chlorophenyl)-7,8-dihydro-1,6-naphthyridin-6(5H)-yl)-2-methylpropanoic acid], the EC50 was more than 1000 nM in test [1], more than 1000 nM in test [2] and 10 to 100 nM in test [3].

`CC(CC(=O)O)CN1CCc2nc(-c3ccc(OCc4ccc(Cl)cc4)cc3)ncc2C1` (single isomer, unassigned; (-)) [Compound 213, (−)-4-(2-(4-((4-chlorobenzyl)oxy)phenyl)-7,8-dihydropyrido[4,3-d]pyrimidin-6(5H)-yl)-3-methylbutanoic acid]: the concentration for a half-maximal effect (EC50) in test [1] is more than 1000 nM; in test [2] it was more than 1000 nM; in test [3] it was 10 to 100 nM.

Regarding `O=C(O)CCN1CCc2ncc(-c3ccc(OCc4cccc(Cl)c4)cc3)nc2C1` [Compound 222, 3-(3-(4-((3-chlorobenzyl)oxy)phenyl)-7,8-dihydropyrido[3,4-b]pyrazin-6(5H)-yl)propanoic acid], the EC50 in test [1] was more than 1000 nM; in test [2], more than 1000 nM; in test [3] it was 1000 to 10000 nM.

Consider `O=C(O)CCN1CCc2nc(-c3ccc(OCc4ccccc4OC(F)F)cc3)ncc2C1` [Compound 90, 3-(2-(4-((2-(difluoromethoxy)benzyl)oxy)phenyl)-7,8-dihydropyrido[4,3-d]pyrimidin-6(5H)-yl)propanoic acid], for which the concentration giving a half-maximal response (EC50) in test [1] was more than 1000 nM; in test [2] it was more than 1000 nM; in test [3], 10 to 100 nM.

Consider `CC(CN1CCc2nc(-c3ccc(OCc4ccccc4)cc3Cl)ccc2C1)C(=O)O` (stereo not drawn) [Compound 108, 3-(2-(4-(benzyloxy)-2-chlorophenyl)-7,8-dihydro-1,6-naphthyridin-6(5H)-yl)-2-methylpropanoic acid], for which the concentration giving a half-maximal response (EC50) was more than 1000 nM in test [1], more than 1000 nM in test [2] and 100 to 1000 nM in test [3].

As to `CC(CN1CCc2nc(-c3ccc(OCc4ccccc4)c(F)c3)ccc2C1)C(=O)O` (stereo not drawn) [Compound 103, 3-(2-(4-(benzyloxy)-3-fluorophenyl)-7,8-dihydro-1,6-naphthyridin-6(5H)-yl)-2-methylpropanoic acid], the EC50 in test [1] is more than 1000 nM; in test [2], more than 1000 nM; in test [3], 10 to 100 nM.

Regarding `O=C(O)CCN1CCc2nc(-c3ccc(OCc4cccc(OC(F)F)c4)cc3)ccc2C1` [Compound 164, 3-(2-(4-((3-difluoromethoxybenzyl)oxy)phenyl)-7,8-dihydro-1,6-naphthyridin-6(5H)-yl)propanoic acid], the EC50 in test [1] is more than 1000 nM; in test [2], less than 1000 nM; in test [3], less than 10 nM.

Take `Cc1cc(-c2ccc3c(n2)CCN(CCC(=O)O)C3)ccc1OCc1ccc(F)cc1` [Compound 168, 3-(2-(4-((4-fluorobenzyl)oxy)-3-methylphenyl)-7,8-dihydro-1,6-naphthyridin-6(5H)-yl)propanoic acid]: the results for the EC50 in test [1], in test [2] and in test [3] were more than 1000 nM, more than 1000 nM and 10 to 100 nM, respectively.

Take `Cc1ccc(COc2ccc(-c3ccc4c(n3)CCN(CCC(=O)O)C4)cc2)cc1C(F)(F)F` [Compound 154, 3-(2-(4-((3-trifluoromethyl-4-(methyl)benzyl)oxy)phenyl)-7,8-dihydro-1,6-naphthyridin-6(5H)-yl)propanoic acid]: the figures for the half-maximal effective concentration (EC50) in test [1], in test [2] and in test [3] were more than 1000 nM, more than 1000 nM and 10 to 100 nM, respectively.

Regarding `O=C(O)CCN1CCc2nc(-c3ccc(OCc4cccc(C(F)(F)F)c4)cc3)c(F)cc2C1` [Compound 194, 3-(2-(4-((3-trifluoromethylbenzyl)oxy)phenyl)-3-fluoro-7,8-dihydro-1,6-naphthyridin-6(5H)-yl)propanoic acid], the results for the EC50 in test [1], in test [2] and in test [3] were more than 1000 nM, more than 1000 nM and less than 10 nM, respectively.
